{"source": "patent US20200071380A1", "about": "“COMBINATION THERAPIES COMPRISING SIRP ALPHA-BASED CHIMERIC PROTEINS” (Shattuck Labs, Inc., priority 2018, published 2020)", "key": {"[1]": {"test_system": "macrophages co-cultured with Toledo lymphoma cells", "experiment": "qRT-PCR of macrophages sorted from Toledo lymphoma co-cultures", "assay_type": "cell-based, human", "settings": "qRT-PCR on macrophages isolated by FACS from Toledo co-cultures", "method": "(§1) FIG. 8D: Macrophage:Toledo lymphoma co-cultures were harvested 2 hours into phagocytosis assays in the presence of rituximab ([…]), SIRPα-Fc-CD40L ([…]), or the combination of both agents. Macrophages were isolated by CD11b+FACS, RNA was prepared, cDNA synthesized, and gene expression (IFNa1, IFNb1, CD80, and CD86) assessed by qRT-PCR. Fold change was calculated using DDCT and values obtained from the housekeeping gene ACTB, and the corresponding values from untreated samples. […] After 2 hours, co-cultures were isolated from tissue culture vessels and were stained with a fluorescently conjugated CD11b antibody to discriminate macrophages. Cells were then assessed by flow cytometry for the co-localization of fluorescent signal from both cells types. […] After 24-hours type I interferon induced luminescence was assessed using a luminometer. The maximum luminescence (RLU) from each experiment was set to 1, and all other samples were normalized accordingly. […]\nRNA was prepared from macrophages isolated using fluorescent activated cell sorting (FACS) from SIRPα-Fc-CD40L/Rituximab treated co-cultures macrophages and Toledo lymphoma cells. The RNA was assessed by gRT-PCR for expression of IFNα1 and IFNβ1, and the macrophage activation markers CD80 and CD86."}, "RAW264.7-ISG cells": {"test_system": "RAW264.7-ISG cells", "experiment": "RAW264.7-ISG interferon reporter cells co-cultured with A20 lymphoma cells", "assay_type": "cell-based, murine", "settings": "co-culture with A20 lymphoma cells, 24 hours", "method": "as §1\nAdditionally, a macrophage reporter system was used to detect activation. […] After 24 hours, culture supernatant was collected and assessed for luciferase activity, which would indicate activation of a type I interferon response in the RAW-ISG reporter cells. […]"}, "[2]": {"test_system": "low EGFR-expressing Chronic myeloid leukemia (CML) cell line (K562)", "experiment": "Macrophage engulfment of K562 cells", "assay_type": "cell-based, human", "settings": "K562, negative control cell line"}, "CT26 tumors": {"test_system": "CT26 tumors", "experiment": "Syngeneic CT26 colon tumor model versus CD40/CD47 antibodies (Example 11)", "assay_type": "in vivo, mice", "method": "FIG. 20C: a similar CT26 experiment was initiated as described in FIG. 20A above, however mice were pre-treated on days −1, 1, and 10 with IP injections of 100 μg of either or both CD4/CD8 depleting antibodies. Mice were inoculated with CT26 tumors on day 0 and treated at a later starting date than FIG. 20A with mSIRPα-Fc-CD40L ARC on days 7, 9, and 11. […] In FIG. 20D and FIG. 20E, BALB/C mice were inoculated with WEHI3 tumors (FIG. 20D) or A20 tumors (FIG. 20E) subcutaneously on the rear flank, and then treated via IP injection with anti-CD20 or mSIRPα-Fc-CD40L on days 7, 9, and 11 (WEHI3) or days 10, 12, and 14 (A20); when tumors were established and reached approximately 57-60 mm^3. A cohort of mice were pre-treated with an interferon alpha receptor 1 (IFNAR1) blocking antibody ([…] by IP injection) on days -1, 1, and 10 (WEHI3) or on days −1, 1, and 13 (A20). FIG. 20F to FIG. 20H are graphs showing blockade of CD4, CD8, and IFNAR1. Peripheral blood analysis by flow cytometry of CD4 (FIG. 20F), CD8 (FIG. 20G), and IFNAR1 (FIG. 20H) depletion following depleting antibody treatment corresponding to FIG. 20C to FIG. 20E. Samples were normalized to untreated animals.\nImplanted CT26 tumors were allowed to grow to ˜30 mm^3 before treatment was initiated with a fixed regimen of two doses of either a CD40 agonist antibody (clone FGK4.5), a CD47 blocking antibody (clone MIAP301), a combination of the two antibodies, or the murine SIRPα-Fc-CD40L chimeric protein. […] Based on this observation, these experiments were repeated in the setting of antibody-mediated depletion of both CD4+ and CD8+ cells (FIG. 20C).\nCD4 and CD8 depletion was verified in the peripheral blood at multiple time points during the experiment (see, FIG. 20F and FIG. 20G)."}}, "data": [{"substance": "SIRPα-Fc-CD40L: Generic name of the SIRPα ECD-Fc-CD40L ECD chimeric protein; human or murine version depending on the test system", "values": [{"measurement": "macrophage activation (CD80, CD86) and expression of type I interferon genes (IFNα1, IFNβ1)", "setting": "[1]", "value": "induced macrophage activation and the expression of type I interferon genes"}, {"measurement": "type I interferon response, interferon gene-driven luciferase activity", "setting": "RAW264.7-ISG cells", "value": "stimulates an increase in interferon gene-driven luciferase activity"}, {"measurement": "phagocytic activity", "setting": "[2]", "value": "no phagocytic activity"}, {"measurement": "therapeutic benefit, requirement for CD4+ T cells", "setting": "CT26 tumors; antibody-mediated depletion of CD4+ cells", "value": "partially required"}, {"measurement": "therapeutic benefit in the absence of CD8+ cells", "setting": "CT26 tumors; antibody-mediated depletion of CD8+ cells", "value": "completely eliminated the therapeutic benefit"}, {"measurement": "proportion of AH1-tetramer positive CD8+ T cells", "setting": "CT26 tumors; tumor and spleen, 13 days following tumor inoculation", "value": "increase in the proportion of AH1-tetramer positive CD8+T cells in both the tumor and spleen"}]}]}
